For data set [1], the system named is HXB2-mediated cell fusion (HL2/3 effector cells, TZM-b1 target cells). The class given is cell-based, HIV-1.
Protocol: HIV-1 mediated cell fusion inhibition assay: the effector cells (HL2/3 cells) and target cells (TZM-b1 cells) were provided by the AIDS Reagent Program of National Institutes of Health (NIH) (catalog numbers: 1294 and 8129, respectively). The both cells were adherent cells and were cultured in a DMEM cell culture medium containing ampicillin/streptomycin double antibiotics and 10% fetal bovine serum (FBS). The TZM-b1 was first added to a 96-well cell culture plate (1×10^4 cells/well), and cultured overnight at 37° C. and 5% CO2. The test substance was diluted with the DMEM cell culture medium by 3 folds and mixed with HL2/3 effector cells (3×10^4 cells/well), then added to the TZM-b1 target cells, and further cultured for 6 hours to fully fuse. The activity of luciferase (relative fluorescence units, RLU) was then determined using a luciferase reporter gene kit from Promega company according to the instructions. The inhibition rate of each sample at each concentration was calculated, and the half effective inhibitory concentration (IC50 value) was calculated using GraphPad Prism Software 2.01.
Data set [2] has as its system HIV-1 strain NL4-3 pseudovirus (D36G mutant). The format is cell-based. As for the experimental part: (§1) The supernatant was discarded from the wells. […] Inhibition rate (%) and IC50 value were calculated.
The test system of the next data set is HIV-1 strain JRCSF. The format is cell-based. As for the experimental part:
(§2) Inhibition rate (%) and IC50 value were calculated.

In data set [3] the test system is 35 HIV-1 pseudoviruses (subtypes A, B, B', C, G, A/C, A/E, B/C). The settings on record: for IC50: read-out: average IC50 for inhibition of various types of HIV-1 pseudoviruses, average over 35 pseudoviruses; for inhibitory activity against different subtypes of HIV-1 as folds of T-20: relative to T-20, from average IC50. An excerpt:
HIV-1 pseudovirus-mediated cell entry inhibition assay: basic steps included: (1) Preparation of HIV-1 pseudovirus: the 293T cells were co-transfected with a plasmid expressing the envelope protein (Env) of HIV-1 strain NL4-3 (i.e., a recombinant expression plasmid obtained by inserting the gene encoding the envelope protein (ENV) of the D36G mutant of the HIV-1 strain NL4-3 in the Table 2 of the Reference 14 listed in the Background Art into the vector pcDNA3.1(−)) and the HIV-1 backbone plasmid pSG3Δenv (provided by the AIDS Reagent Program of National Institutes of Health (NIH), catalog number: 11051) by using a cell transfection reagent, incubated in a cell incubator of 37° C. and 5% CO2 for 6 hours, and then the medium was changed, and the cells were further incubated for 48 hours. The cell culture supernatant containing pseudovirus particles was pipetted and filtered with a 0.45 μm filter to collect the supernatant, then 20% fetal bovine serum (FBS) was added thereto, the final solution was transferred to a polypropylene tube, and stored at −80° C. for ready for use or directly subjected to virus titration. (2) Titration of HIV-1 pseudovirus: the viruses were diluted by 5 folds in a 96-well plate, and 4 replicate wells with 8 gradients were set to a final volume of 100 microliters. The TZM-b1 cells were trypsinized and counted, and the cells were diluted to 1×10^5 cells/ml with DMEM complete medium; 100 μl of cells dilution (containing 15 μg/ml DEAE-dextran) per well were added and cultured at 37° C. and 5% CO2 for 48 hours. The 96-well plate was then taken from the cell culture incubator. The supernatant was discarded from the wells. To each well, 30 μl of a cell lysate was added, and after 10 minutes, 100 μl of a luciferase detection reagent was added. 100 μl of liquid was pipetted from each well and added to a corresponding 96-well white plate, and the luminescence values were read by a microplate photometer. The virus titer was calculated by the Reed-Muench method. (3) Antiviral activity assay: the test substance was dissolved in DMSO and diluted with a cell culture solution by 3 folds, and placed in a 96-well plate at a final volume of […]. 50 μl of a DMEM medium was used in place of the test substance as a negative control. To each well, 100 μl of TZM-b1 target cells solution (containing 15 μg/ml DEAE-dextran) at a concentration of 1×10^5 cells/ml was added, and then 50 μl (corresponding to 100 TCID50 per well) of the HIV-1 pseudovirus obtained above was added. After incubation at 37° C. and 5% CO2 for 48 hours, the relative light units (RLU) of each well were determined by using a luciferase detection reagent (Promega). Inhibition rate (%) and IC50 value were calculated.
Among them, the A, B and C subtypes were the main viruses causing AIDS epidemic in the world, while B/C and A/E recombinant viruses were the main viruses in China. […] Among the Env expression plasmids used for the preparation of pseudoviral, except that the Env expression plasmids used for preparation of PVO, Du156 and CAP 210.2.00.E8 were obtained from the AIDS Reagent Program of NIH in the United states, other plasmids were preserved by the laboratory of Prof. He Yuxian, Institute of Pathogen Biology, Chinese Academy of Medical Sciences, please see the References 13, 14 and 18 listed in the Background Art and articles of Chong et al. (Chong H, Yao X, Zhang C, Cai L, Cui S, Wang Y, He Y. Biophysical property and broad anti-HIV activity of Albuvirtide, a 3-maleimimidoproprotionic acid-modified peptide fusion inhibitor. PLoS One, 2012; 7 (3): e 32599). The preparation of the pseudovirus and the antiviral assay were the same as those in Example 2.1 of Example 2 (HIV-1 pseudovirus-mediated cell entry inhibition assay).

The test system of data set [4] is NL4-3 pseudovirus carrying T-20 resistance mutation site of NHR. In words: inhibition of T-20 resistant strains. The class given is cell-based, HIV-1. The settings on record: strains with single or double mutations.
Data set [5] deals with HIV-2 strain ROD (infectious). In words: inhibition of HIV-2. Conditions: HIV-2 ROD. The class given is cell-based. As for the experimental part: as §2
(§3) In order to further reflect the antiviral advantages of the potent lipopeptides of the present invention, their inhibitory activity against HIV-2 and SIV was determined in the example. The methods of antiviral activity assays used were described in the literatures published by the present inventors (see the References 13 and 30 listed in the Background Art). The molecular cloning plasmid pROD of the HIV-2 strain ROD (HIV-2ROD) was kindly provided by Professor Nuno Taveira from the University of Lisbon, Portugal, and the plasmids expressing the SIV strain SIVpbj (SIVPBJ) and SIV239 envelope proteins (pSIVpbj-Env and pSIV239, respectively) were kindly provided by Professor Xu Jianqing from the Fudan University. The preparation of the infectious ROD was the same as that of the infectious JRCSF in the above section 2.1, and the pseudoviruses SIVpbj and SIV239 were prepared by a method same as that described in the above Examples 2 and 3.

The subject of data set [6] is SIV pseudoviruses SIVpbj and SIV239. In words: inhibition of SIV pseudoviruses. The format is cell-based. Here is the method: as §1, §3
Data set [7] deals with N39 (NHR-derived polypeptide of gp41) (Human immunodeficiency virus type 1 group M subtype B, UniProt P04578). The class given is binding, HIV-1. The settings on record: 10 μM each, PBS pH 7.2. As for the experimental part: (§4) The circular dichroism spectrophotometer was Jasco-815 by JASCO Inc., and the assay method was referred to the papers published by the inventors (see the References 18 and 30 listed in the Background Art). […] The N39 and an inhibitor were separately dissolved in a phosphate buffered saline (PBS) to prepare a PBS solution (pH 7.2) of a concentration of 20 μM. The N39 was mixed with an inhibitor at a volume ratio of 1:1 (final concentration of 10 μM for each), the mixed sample was placed at 37° C. for 30 minutes to fully react, and then the helix content and Tm value of the resultant complex were measured by the circular dichroism spectrophotometer. The scan wavelength range of the device was 195-260 nm with a wavelength interval of 1 nm, and the values measured by scanning for three times were averaged. Based on the CD signals, the interaction between the polypeptides and the helix content were determined. Then, the sample for CD signal measurement was transferred to the temperature scanning sample cell, the program of the CD device was set to temperature scanning with a detection wavelength of 220 nm and scanning range of 20-98° C., and the program scan was performed to obtain the curve of the CD signals vs temperature, based on which the Tm value was calculated. Based on the Tm value, the stability of the formed helical structure of the inhibitor and N39 was judged.
Chain of N39 (NHR-derived polypeptide of gp41) (P04578 528-566): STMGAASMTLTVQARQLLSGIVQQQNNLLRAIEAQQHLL

Data set [8] in a line: circular dichroism secondary structure analysis of the inhibitors themselves. Conditions: 20 μM and 40 μM in PBS. The format is physicochemical. Here is the method: as §4
For easy analysis, the α-helix content and the Tm value of the inhibitors were measured at concentrations of 10 μM, 20 μM, and 40 μM (PBS solution), respectively.
In general terms: CD spectra are sensitive to the conformation of chiral molecules.

The results in this text go back to patent US11680086B2, “Lipopeptide for potently inhibiting HIV, derivative thereof, pharmaceutical composition thereof and use thereof” (Institute of Pathogen Biology, Chinese Academy of Medical …, priority 2017, dated 2023).

Peptide text beside a SMILES is read from it. * marks the point of attachment. Palmitoyl = CCCCCCCCCCCCCCCC(=O)*

One may read the IC50 as the concentration that gives 50% inhibition. For the compound `CCCCCCCCCCCCCCCC(=O)NCCCC[C@H](NC(=O)[C@H](CC(=O)O)NC(=O)[C@H](CC(C)C)NC(=O)[C@H](CCC(=O)O)NC(=O)[C@H](CC(C)C)NC(=O)[C@H](CC(C)C)NC(=O)[C@H](CCC(=O)O)NC(=O)[C@H](CCC(N)=O)NC(=O)[C@H](CCC(=O)O)NC(=O)[C@H](CC(N)=O)NC(=O)[C@H](CCCCN)NC(=O)[C@H](CCC(=O)O)NC(=O)[C@H](CCC(N)=O)NC(=O)[C@H](CCC(N)=O)NC(=O)[C@H](CC(N)=O)NC(=O)[C@H](CCC(N)=O)NC(=O)[C@H](CO)NC(=O)[C@H](CCC(=O)O)NC(=O)[C@H](CCC(=O)O)NC(=O)[C@@H](NC(=O)[C@H](CC(C)C)NC(=O)[C@H](CO)NC(=O)[C@H](Cc1c[nH]cn1)NC(=O)[C@@H](NC(=O)[C@H](CC(C)C)NC(=O)[C@H](CO)NC(=O)[C@@H](NC(=O)[C@H](Cc1ccc(O)cc1)NC(C)=O)[C@@H](C)O)[C@@H](C)CC)[C@@H](C)CC)C(N)=O` [LP-40] (Ac-YTSLIHSLIEESQNQQEKNEQELLELDK(Palmitoyl)-NH2), the “inhibitory activity as folds of that of T-20” value (“inhibitory activity as folds” for short) in data set [1] (HXB2-mediated cell fusion, relative to T-20) is listed as “about 59 folds”. In addition, the “inhibitory activity as folds” value in data set [2] (NL4-3 pseudovirus entry, relative to T-20) is given as about 21 folds. Moreover, the “inhibitory activity as folds” value in the data set on HIV-1 strain JRCSF (JRCSF replication, relative to T-20) is recorded as about 18 folds. In data set [3], the IC50 came to 6.37 nM and the “inhibitory activity against different subtypes of HIV-1 as folds of T-20” value is recorded as 7 folds. For the same compound, the “inhibitory activity against T-20 resistant strains (in words)” value in data set [4] is “had been improved”. The “inhibitory activity against HIV-2 (in words)” value in data set [5] was “only slightly improved”. Further, the “inhibitory activity against SIV (in words)” value in [6] is recorded as “only slightly improved”. Besides, in data set [7], the “Tm value of the complex with N39” value was 51.3 °C and the “helix content of the complex with N39” value is 57.7%. Also, in data set [8], the “secondary structure of the inhibitor itself (in words)” value is “small amount of helical structure”.

Turning to `CCCCCCCCCCCCCCCC(=O)NCCCC[C@H](NC(=O)[C@H](CCCCN)NC(=O)[C@H](CC(C)C)NC(=O)[C@H](CCC(=O)O)NC(=O)[C@H](CCC(=O)O)NC(=O)[C@H](CCC(=O)O)NC(=O)[C@H](CC(N)=O)NC(=O)[C@H](CCCCN)NC(=O)[C@H](CCCCN)NC(=O)[C@H](CCC(N)=O)NC(=O)[C@H](CCC(N)=O)NC(=O)[C@H](CCC(=O)O)NC(=O)[C@H](CCC(=O)O)NC(=O)[C@H](C)NC(=O)[C@H](CCCCN)NC(=O)[C@H](CCCCN)NC(=O)[C@H](CC(C)C)NC(=O)[C@H](CC(C)C)NC(=O)[C@H](CCC(=O)O)NC(=O)[C@H](CCC(=O)O)NC(=O)[C@@H](NC(=O)[C@H](CCCCN)NC(=O)[C@H](CCC(N)=O)NC(=O)[C@H](CCC(=O)O)NC(=O)[C@H](Cc1c[nH]c2ccccc12)NC(C)=O)[C@@H](C)CC)C(N)=O` [LP-55] (Ac-WEQKIEELLKKAEEQQKKNEEELKK(Palmitoyl)-NH2), the “inhibitory activity against HXB2-cell fusion (in words)” value in [1] (compared with template LP-52) was “essentially unchanged”. In [2] (compared with template LP-52), the “decrease of inhibitory activity against NL4-3 infection” value was “about 2 fold”. Also, in the data set on HIV-1 strain JRCSF (compared with template LP-52), the “decrease of inhibitory activity against JRCSF infection” value is “about 2 fold”. Moreover, in data set [3], the IC50 amounted to 0.034 nM and the “inhibitory activity against different subtypes of HIV-1 as folds of T-20” value turned out to be 1218 folds. The “inhibitory activity against T-20 resistant strains (in words)” value in data set [4] was “much lower active against T-20 resistant mutant strains than the LP-52 and LP-80”. Further, in data set [5], the “inhibitory activity against HIV-2 (in words)” value is “significantly affected the activity”. Moreover, the “inhibitory activity against SIV (in words)” value in data set [6] is recorded as “significantly affected the activity”. The “Tm value of the complex with N39” value in data set [7] turned out to be 63.1 °C.

As to `CCCCCCCCCCCCCCCC(=O)NCCCC[C@H](NC(=O)[C@H](CCC(=O)O)NC(=O)[C@H](CC(C)C)NC(=O)[C@H](CCCCN)NC(=O)[C@H](CCCCN)NC(=O)[C@H](CC(C)C)NC(=O)[C@H](CCC(=O)O)NC(=O)[C@H](CCC(=O)O)NC(=O)[C@H](CCC(=O)O)NC(=O)[C@H](CC(N)=O)NC(=O)[C@H](CCCCN)NC(=O)[C@H](CCCCN)NC(=O)[C@H](CCC(N)=O)NC(=O)[C@H](CCC(N)=O)NC(=O)[C@H](CCC(=O)O)NC(=O)[C@H](CCC(=O)O)NC(=O)[C@H](C)NC(=O)[C@H](CCCCN)NC(=O)[C@H](CCCCN)NC(=O)[C@H](CC(C)C)NC(=O)[C@H](CC(C)C)NC(=O)[C@H](CCC(=O)O)NC(=O)[C@H](CCC(=O)O)NC(=O)[C@@H](NC(C)=O)[C@@H](C)CC)C(N)=O` [LP-65] (Ac-IEELLKKAEEQQKKNEEELKKLEK(Palmitoyl)-NH2), in data set [3], the IC50 came out at 0.052 nM and the “inhibitory activity against different subtypes of HIV-1 as folds of T-20” value came to 796 folds. Further, the “inhibitory activity against T-20 resistant strains (in words)” value in data set [4] is “much lower active against T-20 resistant mutant strains than the LP-52 and LP-80”. The “inhibitory activity against HIV-2 (in words)” value in [5] is “extremely potent inhibitory activity”. The “inhibitory activity against SIV (in words)” value in data set [6] is “extremely potent inhibitory activity”. For the same compound, in [7], the “Tm value of the complex with N39” value stood at 72.1 °C and the “helix content of the complex with N39” value stood at 63%.
